Tests used:
acetylcholinesterase [1] = assay: Inhibition of the immobilized enzyme of the bioassay element by pesticides (FIG. 5); type: biochemical; settings: for detection sensitivity of the bioassay element (rank among five pesticides; carbofuran>naled>malathion>carbaryl=trichlorfon): at any same concentration
Source text: (§1) The bioassay element of the present invention is referred to FIG. 1 which illustrates the structure of bioassay element in one embodiment of the present invention. The bioassay element includes a carrier 100, an enzyme 110 as a testing material, and a coating film 120. The carrier includes a membrane 101 and a stationary layer 102 applying on the membrane 101. The enzyme 110 is dispersed in the coating film 120 that covers on the surface of the stationary layer 102. The coating film 120 effectively increases the amount of the immobilized enzyme 110 and raises the activity of the enzyme 110 and fixes the enzyme 110 on the surface of the carrier. In the working example of the present invention, the enzyme acetylcholinesterase is selected, and the coating film 120 consists of casein, calcium ions, a color developer (DTNB), and trehalose. The stationary layer 102 consists of casein and calcium ions.
In the working example of the present invention, the stationary-layer mixed solution was prepared by mixing 120 mM of a calcium ion solution and 2.5% of a casein solution in a ratio of 1:14 by volume. The bioassay solution was prepared by mixing an enzyme solution and the mixed solution containing casein in a ratio of 5:7 by volume. The enzyme solution was prepared by mixing 1.52 U/μl of an enzyme and 5% of trehalose in a ratio of 2.61:108 by volume. The mixed solution containing casein was mixed with a color developer, 120 mM of a calcium ion solution and 4% of a casein solution in a ratio of (0.009 to 0.012):1:(6 to 7.75) (w/v/v).
The results of the inhibiting effect of several pesticides (with different concentrations) on the bioassay element of the present invention are referred to FIG. 5. […] At the same concentration, the higher inhibition represents that the enzyme has higher detection sensitivity to pesticide. […] Within the linear relationship between the concentration of each pesticide and the inhibition of the enzyme, a biosensor capable of quantitatively detecting pesticides in association with optical sensors can be designed.
Therefore, if the inhibition of the enzyme activity is greater than 30%, it should be very easy to distinguish the yellow-color level difference by human eyes. In addition, when the concentration of naled was greater than 3.5 ppm and the concentrations of malathion, trichlorfon and carbaryl were greater than 7 ppm, the inhibition of the enzyme activity would be greater than 60%. Thus, the color would become colorless.

acetylcholinesterase [2] = assay: Color change of the bioassay element against pesticides, judged by human eyes (FIG. 6); type: biochemical; settings: color changes from yellow to yellowish
Source text: as §1
If the inhibition of the enzyme activity is greater than 60%, the color will become colorless. To discriminate the color change by human eyes, the concentrations of trichlorfon and carbaryl are about 3 ppm, malathion and naled are about 1 ppm, carbafuran is about 0.1 ppm.

| Structure (SMILES) | concentration dependence of inhibition of the enzyme activity (acetylcholinesterase [1]) | detection sensitivity of the bioassay element (rank among five pesticides; carbofuran>naled>malathion>carbaryl=trichlorfon) (acetylcholinesterase [1]) | inhibition of the enzyme activity (acetylcholinesterase [1]; pesticide concentration 3 ppm) | concentration to discriminate the color change by human eyes (acetylcholinesterase [2]) | concentration range with linear relationship between pesticide concentration and inhibition of the enzyme activity (acetylcholinesterase [1]) [ppm] | pesticide concentration above which the increase of inhibition is plateau (acetylcholinesterase [1]) | inhibition of the enzyme activity (acetylcholinesterase [1]; pesticide concentration about 0.1 ppm) [%] | inhibition of the enzyme activity (acetylcholinesterase [1]; pesticide concentration 1 ppm) [%] |
| --- | --- | --- | --- | --- | --- | --- | --- | --- |
| CNC(=O)Oc1cccc2ccccc12 [carbaryl] | increased with increasing concentrations | lowest | about 28% | about 3 ppm | – | – | – | – |
| CNC(=O)Oc1cccc2c1OC(C)(C)C2 [carbofuran] | – | highest | – | about 0.1 ppm | 0 to 0.1 | greater than 0.1 ppm | 65 | – |
| CCOC(=O)CC(SP(=S)(OC)OC)C(=O)OCC (stereo not shown) [malathion] | – | next | – | about 1 ppm | – | – | – | 28 |
| COP(=O)(OC)OC(Br)C(Cl)(Cl)Br (stereo not shown) [naled] | – | next | – | about 1 ppm | – | – | – | 39 |
| COP(=O)(OC)C(O)C(Cl)(Cl)Cl (stereo not shown) [trichlorfon] | increased with increasing concentrations | lowest | about 28% | about 3 ppm | – | – | – | – |

Source: US7883859B2, “Method for producing active and stable acetylcholinesterase bioassay element” (priority 2005, dated 2011)
